Common to all, as to assay: inhibition of tumour cell growth, NCI panel, 48 h
Test [1] concerns SK-MEL-28 melanoma.
Test [2] deals with HCT-15 colon.
Test [3] has as its system RXF 393 renal.
Test [4] deals with A549 NSCLC.
Test [5] has as its system SF-539 CNS.
Test [6] deals with OVCAR-5 ovarian.
The subject of test [7] is HT29 colon.
In test [8] the test system is MCF7 breast.
In test [9] the test system is IGROV1 ovarian.
For test [10], the system named is TK-10 renal.
Test [11] concerns HOP-92 NSCLC.
Test [12] deals with HCT-116 colon.
Test [13] deals with LOX IMVI melanoma.
The test system of test [14] is T-47D breast.
The test system of test [15] is MALME-3M melanoma.
Test [16] concerns NCI-H522 lung.
The subject of test [17] is SNB-75 CNS.
In test [18] the test system is MDA-MB-231 breast.
Test [19] concerns SR leukemia.
In test [20] the test system is BT-549 breast.

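Growth conditions: 96-well plates. Treatment: test compound, 48 hours, 5 concentrations. Analysis: linear interpolation between bracketing concentrations; unreached endpoints set to highest concentration. TGI is the concentration that stops growth completely.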

Take `CN1CCN(CCCCN2c3ccccc3Sc3ccc(N=[N+]=[N-])cc32)CC1`: the TGI was determined as 3.73 µM in test [1]; 23 µM in test [2]; 19.1 µM in [3]; 29.3 µM in [4]; 20.4 µM in [5]; 22.8 µM in test [6]. Further, the TGI was found to be 4.59 µM in test [7]; 9.75 µM in test [8]; 23.3 µM in [9]; 27.9 µM in test [10]; 12.3 µM in [11]; 13.7 µM in test [12]. Also, the TGI in test [13] was 7.59 µM; in test [14], 36.2 µM; in test [15] it was 6.39 µM; in [16], 13.6 µM; in test [17], 16.2 µM; in test [18], 15 µM. Moreover, the results for the TGI in test [19] and in test [20] were 7.07 µM and 26.9 µM, respectively.
Consider `OC(C/C(=N\N=C(/CC(O)(C(F)(F)F)C(F)(F)F)c1ccccc1)c1ccccc1)(C(F)(F)F)C(F)(F)F`, for which the TGI in [1], in test [2], in test [3], in [4], in [5] and in test [6] was greater than 10 µM in each case. Moreover, the TGI in test [7], in [8], in test [9], in test [10], in [11] and in test [12] was greater than 10 µM each time. For the same molecule, the TGI in test [13], in test [14], in [15], in test [16], in test [17] and in test [18] was greater than 10 µM throughout. Besides, the TGI in test [19] and in test [20] was greater than 10 µM in each case.
For the molecule `CCSC(=O)/C=C1\CN(C(=O)OC(C)(C)C)C1C(=O)OC(C)(C)C` (stereo not given), the TGI in [1] turned out to be 3.67 µM; in test [2] it was 3.93 µM; in test [3] it was 3.76 µM; in [4], 26.4 µM; in test [5], 7.51 µM; in test [6] it was 14.3 µM. Besides, the TGI in test [7] is greater than 35.4 µM; in [8], 16.8 µM; in [9] it was 14.6 µM; in test [10], 6.39 µM; in [11] it was 8.4 µM; in [12], 3 µM. In addition, the TGI in test [13] came out at 3.3 µM; in test [14] it was 13.4 µM; in test [15], 4.42 µM; in [16] it was 5.79 µM; in test [17] it was 17.4 µM; in test [18], 12.7 µM. The TGI in [19] stood at 2.48 µM; in [20], 22.4 µM.
`Clc1ccc(-c2nc3ccc(C45CC6CC(CC(C6)C4)C5)cc3[nH]2)cc1`: the TGI is greater than 100 µM in test [1]; greater than 72.8 µM in [2]; greater than 100 µM in test [3]; greater than 100 µM in test [4]; greater than 100 µM in test [5]; greater than 100 µM in [6]. Further, the TGI in [7] was greater than 100 µM; in test [8] it was greater than 100 µM; in [9], greater than 100 µM; in [10], 98.9 µM; in test [11], greater than 95.3 µM; in [12], greater than 100 µM. Also, the TGI in [13], in test [14], in [15], in [16], in test [17] and in [18] was greater than 100 µM each time. In addition, the values for the TGI in test [19] and in [20] were greater than 100 µM and 98.3 µM, respectively.
For the molecule `O/N=C1\CCc2cc3c(cc21)CCC3`, the TGI in test [1], in test [2], in [3], in test [4], in [5] and in test [6] was greater than 100 µM in each case. Further, the TGI in test [7], in [8], in test [9], in [10], in test [11] and in test [12] was greater than 100 µM each time. Besides, the TGI in test [13], in test [14], in test [15], in test [16], in [17] and in test [18] was greater than 100 µM in each case. The TGI in [19] and in test [20] was greater than 100 µM each time.

These data come from PubChem BioAssay (NCI).
